Test results: PubChem BioAssay AID1259408 (Genetic Toxicology Data Bank (GENE-TOX), 2018)
The source made the active and inactive calls. No rule for the calls is given here.

Tested on: GENE-TOX genotoxicity assays, various organisms and cells
Test: GENE-TOX mutagenicity studies
Details: for call: Assay Type: In vivo carcinogenicity studies
[1] = Species/Cell Type: Salmonella typhimurium (one or more of the five standard strains: TA98, TA100, TA1535, TA1537, and TA1538), Assay Type: Histidine reverse gene mutation, Ames assay, Assay Code: SAL+*, Activation: With metabolic activation, Evaluation Type: Evaluation A (Pre-1980)
[2] = Species/Cell Type: Nonhuman, Assay Code: CCG+L, Evaluation Type: Evaluation A (Pre-1980)
[3] = Species/Cell Type: Rodents, Sex: Male, Assay Type: Dominant lethal test, Assay Code: DLT-, Evaluation Type: Evaluation A (Pre-1980)
[4] = Species/Cell Type: Human, Assay Type: Sister-chromatid exchange (SCE) in vitro, Assay Code: SC1T, Evaluation Type: Evaluation B (Post-1980)
[5] = Species/Cell Type: Chinese hamster lung (V79) cells, Assay Type: Forward gene mutation at the HPRT or ouabain locus, Assay Code: V79+, Evaluation Type: Evaluation A (Pre-1980)

CCCCNC(=O)OCC
call (Species/Cell Type: Nonhuman, Assay Code: CCGT, Evaluation Type: Evaluation A (Pre-1980)): no conclusion | mutagenic call (Species/Cell Type: Nonhuman, Assay Type: Sister-chromatid exchange (SCE) in vitro, Assay Code: SC2-, Evaluation Type: Evaluation A (Pre-1980)): inactive; negative

C=CCC1=C(C)C(OC(=O)[C@@H]2[C@@H](C=C(C)C)C2(C)C)CC1=O (stereo partly specified)
mutagenic call (Species/Cell Type: Human diploid fibroblasts, Assay Type: Unscheduled DNA synthesis (UDS) in vitro, DNA effects, Assay Code: UDH-, Evaluation Type: Evaluation A (Pre-1980)): inactive; negative | mutagenic call (Species/Cell Type: Saccharomyces cerevisiae, Assay Type: Mitotic recombination or gene conversion, Assay Code: YEH-, Evaluation Type: Evaluation A (Pre-1980)): inactive; negative

C#C[C@@]1(O)CC[C@@H]2[C@H]3CCC4=CC(=O)CC[C@H]4[C@@H]3CC[C@]21CC
mutagenic call (Species/Cell Type: Rabbit, Sex: Male, Assay Type: Sperm morphology, Assay Code: SPR-, Evaluation Type: Evaluation A (Pre-1980)): inactive; negative

O=c1cc(O)c2ccccc2[nH]1
mutagenic call [1]: active; positive

C=C(Cl)Cl
mutagenic call (Species/Cell Type: Mammalian polychromatic erythrocytes, Assay Type: Micronucleus test, chromosome aberrations, Assay Code: MNT-, Evaluation Type: Evaluation B (Post-1980)): inactive; negative | call [2]: active; positive | mutagenic call [3]: inactive; negative | mutagenic call [1]: active; positive | mutagenic call (Species/Cell Type: Tradescantia species, Assay Type: Gene mutation, Assay Code: TRM+D, Dose Response: With dose response, Evaluation Type: Evaluation A (Pre-1980)): active; positive

O=c1oc2cc3occc3cc2c2ccncc12
mutagenic call [4]: no conclusion

Oc1cc2cc3c(ccc4ccccc43)cc2c2ccccc12
mutagenic call [5]: active; positive | mutagenic call (Species/Cell Type: Mouse prostate cells, Assay Type: Cell transformation, Assay Code: CTM-, Evaluation Type: Evaluation A (Pre-1980)): inactive; negative | mutagenic call (Species/Cell Type: Syrian hamster embryo (SHE) cells, Assay Type: Cell transformation, clonal assay, Assay Code: CTCT, Evaluation Type: Evaluation A (Pre-1980)): no conclusion

CC(O)c1ccccc1 (stereo unspecified)
mutagenic call (Species/Cell Type: Escherichia coli polA (W3119 vs P3478), Assay Type: Rec-assay, DNA effects (bacterial DNA repair), Assay Code: RE1T, Evaluation Type: Evaluation A (Pre-1980)): no conclusion

NC1CCSC1=O (stereo unspecified)
mutagenic call (Species/Cell Type: Human lymphocytes, Assay Type: Sister-chromatid exchange (SCE) in vitro, Assay Code: SCLT, Evaluation Type: Evaluation B (Post-1980)): no conclusion | mutagenic call [4]: no conclusion

COc1ccc2ccc(=O)oc2c1
mutagenic call (Species/Cell Type: Allium cepa, Assay Type: Chromosome aberrations, Assay Code: ALC+D, Dose Response: With dose response, Evaluation Type: Evaluation A (Pre-1980)): active; positive

O[C@@H]1C=Cc2c(cc3ccc4cccc5ccc2c3c45)[C@H]1O
mutagenic call [5]: active; positive | call [2]: active; positive

O=CNc1nc(-c2ccc([N+](=O)[O-])[nH]2)cs1
mutagenic call (Species/Cell Type: Salmonella typhimurium (one or more of the five standard strains: TA98, TA100, TA1535, TA1537, and TA1538), Assay Type: Histidine reverse gene mutation, Ames assay, Assay Code: SALT, Evaluation Type: Evaluation A (Pre-1980)): no conclusion

O=C(O)c1ccccc1O
mutagenic call (Species/Cell Type: Saccharomyces cerevisiae, Assay Type: Reverse gene mutation, Assay Code: YER+, Evaluation Type: Evaluation A (Pre-1980)): active; positive | mutagenic call (Species/Cell Type: Salmonella typhimurium (one or more of the five standard strains: TA98, TA100, TA1535, TA1537, and TA1538), Assay Type: Histidine reverse gene mutation, Ames assay, Assay Code: SAL-, Evaluation Type: Evaluation A (Pre-1980)): inactive; negative

O=c1[nH]cc(Cl)c(=O)[nH]1
mutagenic call (Species/Cell Type: Mouse, Sex: Male, Assay Type: Specific locus test, gene mutation, Assay Code: SLTT, Evaluation Type: Evaluation A (Pre-1980)): no conclusion

c1cc[n+]2c(c1)-c1cccc[n+]1CC2
mutagenic call (Species/Cell Type: Drosophila melanogaster, Assay Type: Sex-linked recessive lethal gene mutation, Assay Code: SRLT, Evaluation Type: Evaluation A (Pre-1980)): no conclusion | mutagenic call [3]: inactive; negative | mutagenic call (Species/Cell Type: Saccharomyces cerevisiae, Assay Type: Mitotic recombination or gene conversion, Assay Code: YEC+, Evaluation Type: Evaluation A (Pre-1980)): active; positive

Cc1c2ccccc2c2ccc3cccc4ccc1c2c43
mutagenic call (Species/Cell Type: Chinese hamster lung (V79) cells, Assay Type: Forward gene mutation at the HPRT or ouabain locus, Assay Code: V79+*, Activation: With metabolic activation, Evaluation Type: Evaluation A (Pre-1980)): active; positive | call (Species/Cell Type: Nonhuman, Assay Code: CCG+, Evaluation Type: Evaluation A (Pre-1980)): active; positive

O=C(OCC1CCN2CCC(OC(=O)c3ccc([N+](=O)[O-])cc3)C12)c1ccc([N+](=O)[O-])cc1 (stereo unspecified)
mutagenic call (Species/Cell Type: Allium cepa, Assay Type: Chromosome aberrations, Assay Code: ALC-, Evaluation Type: Evaluation A (Pre-1980)): inactive; negative
